Data on two compounds can be found in patent US20120100204A1, “TGF-Beta Stimulating Agent Compositions and Combinations” (TCP INNOVATIONS LTD, priority 2007, published 2012).

One assay relates to tgfb2 mRNA. Kind of assay: tgfb2 mRNA level by quantitative PCR in human aortic vascular smooth muscle cells. In kind it is cell-based. The conditions noted are these: 24 hrs. As to the method: (1995) Cardiovasc. Res. 29:848-55). […] The cells were then incubated for either 24 hrs or 72 hrs depending on the experiment. All treatment conditions were established in triplicate. The level of mRNA for tgfb1, tgfb2 and tgfb3 were estimated by quantitative PCR. The media was removed and RNA was carefully prepared using the Ambion RNAqueous4PCR kit (Ambion#1914) in accordance with the manufacturer's instructions. The purity of the RNA and the quantity was assessed spectrophotometrically. […] This analysis results in both a gel-like image as well as electrophoretic data. Indications of RNA degradation are: (a) decreasing ratio of ribosomal bands (b) additional peaks bellow the ribosomal bands (c) Decrease in overall RNA signal (d) shift towards shorter fragments. […] Next, the RNA was converted to cDNA using the ABI High-Capacity cDNA Archive Kit, in accordance with manufacturer's instructions. […] Samples were vortexed to ensure thorough mixing. cDNA was aliquoted into ABI 384 well plates using a multi-channel pipette, 4.5 μl of sample into each well. Samples were assayed in triplicate (that is, nine determinations in total were made for each condition, being three separate assays on each of three replicate culture wells). The assay mix and Universal Master Mix were prepared and aliquoted across the 384 well plates 5.5 μl in each well, using a single channel pipette. […] Universal Master Mix=5 μl; cDNA=4.5 μl. […] Quantitative PCR was performed using several primer/probe sets. […] In all quantitative PCR experiments, several additional controls were included: firstly, a control for each sample is run with no reverse transcription to ensure the mRNA sample is not contaminated with genomic DNA (although the manual design probe/primer sets were all selected to cross an exon/exon boundary, ensuring no detectable amplicon is produced from genomic DNA templates). […]

Assay [1] relates to anti-collagen type II antibodies. As to the kind of experiment: direct ELISA for anti-collagen type II antibodies in serum of collagen-induced arthritis mice. In kind it is in vivo. Conditions: day 39. As to the method:
Collagen-induced arthritis was induced in adult male DBA/1 mice as previously described (Courtenay et al. (1980) Nature 283:666-8). Adult (12 week old) male DBA/1 mice were divided into groups of six animals. Mice received 100 μg per mouse of bovine type II collagen (Sigma) in Freunds Complete Adjuvant (FCA) by the subcutaneous route, while a control group received an identical injection of type I collagen in FCA. Twenty-one days later, all groups of mice received an intraperitoneal booster injection containing 100 μg per mouse of the same collagen type as previously, but in the absence of adjuvant. […] Foodpad thickness was determined each day using a digital caliper EC1507 (Moore & Wright) accurate to 0.01 mm. The thickness of each footpad was determined three times on each day by a single operator blind to the treatment condition of the mouse, and the footpad thickness of each mouse on each day was reported as the mean for the three measurements for all four paws. Errors represent the standard error of the mean among the six animals in each group.
A direct ELISA for anti-collagen type II antibodies was used as an alternative assessment of the autoimmune response. Bovine type II collagen was coated onto Maxisorp 96-well ELISA plate wells (Nunc) at 1 μg/well in 50 μl of 50 mM sodium carbonate pH9.0 for 2 hours at 4° C. Wells were blocked with 5% Tween-20/5% sucrose in phosphate-buffered saline for 1 hour at room temperature. Mouse serum at various dilutions was incubated with the collagen-coated wells for 2 hours at room temperature. After three quick washes with tris-buffered saline +0.05% Tween-20, bound murine antibody was detected using a range of different anti-mouse IgG peroxidase conjugates (Pan-IgG A-9174 Sigma Chemical Co; IgA A-4789 Sigma Chemical Company; IgG1, G2a, G2b and G3 Southern Biotechnology) at 1:5000 dilution in tris-buffered saline +0.05% Tween-20 for 1 hour at room temperature. After three further washes, bound peroxidase label was visualised with K-BLUE chromogenic substrate (Skybio, Ltd.) for 20 minutes at room temperature, and the concentration of murine anti-collagen IgG in the serum quantitated by interpolating a standard curve constructed using known concentrations of the murine monoclonal anti-collagen type II IgG, CIICI (NIH Developmental Studies Hybridoma Bank).
Background: ELISA stands for enzyme-linked immunosorbent assay.

Structures are written as SMILES. Marks after values point to notes of the source that are not given here. Bounds are passed on as bounds.

For `CC(=O)Oc1ccccc1C(=O)O` [Aspirin, acetylsalicylic acid], the results for the “Level of mRNA, estimated by qPCR: tgfb2” value in the assay on tgfb2 mRNA (10 μM A), with tgfb2 mRNA (33 μM A) and in the assay on tgfb2 mRNA (100 μM A) were 0.92 ± 0.10 fold-change, 1.00 ± 0.17 fold-change and 1.03 ± 0.16 fold-change, respectively.
For the compound `CC/C(=C(\c1ccccc1)c1ccc(OCCN(C)C)cc1)c1ccccc1` [Tamoxifen], the “Pan IgG binding to bovine collagen II, median concentration in serum” value in assay [1] (DBA/1 mice with collagen-induced arthritis) came to 181 µg/mL. For the same compound, in assay [1] (neat serum), the “IgG1 binding to bovine collagen II, median absorbance” value is on record as <0.05*; the “IgG2a binding to bovine collagen II, median absorbance” value was 0.081*; the “IgG2b binding to bovine collagen II, median absorbance” value is on record as 0.482*; the “IgG3 binding to bovine collagen II, median absorbance” value was 0.069*.
